Laboratory results taken from US10471059B2, “Compositions and methods of using tyrosine kinase inhibitors” (YALE UNIVERSITY, priority 2015, dated 2019).

Tests used:
[1] = system: PZR Y241 and Y263 phosphorylation; experiment: Shp2E76A-induced PZR tyrosyl phosphorylation in NIH 3T3 cells, immunoblot; format: cell-based; details: cells expressing activated Shp2 (Shp2-E76A)
[2] = system: PZR Y241 and Y263 phosphorylation; experiment: Shp2 mutant-induced PZR tyrosyl phosphorylation in HEK-293 cells, immunoblot; format: cell-based; details: HEK-293 cells transfected with Shp2 mutants; 5 μM SU6656

Structure (SMILES)	concentration at which Shp2-E76A-induced PZR hyper tyrosyl phosphorylation was inhibited [1] [µM]	NS and NSML Shp2 mutant-induced PZR hypertyrosyl phosphorylation [2]
CC(C)(C)n1nc(-c2ccc(Cl)cc2)c2c(N)ncnc21 [PP2]	5	
CN(C)S(=O)(=O)c1ccc2c(c1)/C(=C/c1cc3c([nH]1)CCCC3)C(=O)N2 [SU6656]	1	can be inhibited
